Test results: patent US20200325487A1, “A COM[…] FOR REDUCING RANDOM I[…] WHEN TR[…]” (UNIVERSITEIT LEIDEN, priority 2017, published 2020)

Tests used:
[1] = tested on: wild type, ku80, mre11-2 and ku80mre11-2 mutant seedlings; test: Assays for sensitivity to bleomycin and methyl methane sulfonate (MMS); type: in vivo, Arabidopsis thaliana; settings: ku80mre11-2 double mutant, 0.02, 0.05 μg/ml bleomycin or 0.005%, 0.01% MMS; for fresh weight of double mutant plants in comparison with wild type and each of the single mutants: 10-days-old plate-grown plants; for growth phenotype of double mutant compared with each of the single mutants: scored 2 weeks after germination
Method: Seeds of wild type, ku80, mre11-2 and ku80mre11-2 mutants were surface-sterilized as described (Weijers et al. 2001) and germinated on solid % MS medium without additions or containing 0.02 μg/ml or 0.05 μg/ml bleomycin (Sigma), 0.005% (v/v), 0.007% or 0.01% MMS (Sigma) and photographed after 2 weeks. After 10 days growth, the fresh weight (compared with controls) was determined by weighing the seedlings in batches of 20 in duplicate. Statistical analyses were performed using Prism version 5 (GraphPad Software Inc.).

[2] = tested on: root tips of Arabidopsis seedlings (wild type, ku80, mre11-2, ku80mre11-2); test: Cell death assay (propidium iodide staining of root tips); type: in vivo, Arabidopsis thaliana; settings: 0.05 μg/ml bleomycin for 1 day and 4 days; 4-d-old seedlings; more cell death in ku80mre11-2 double mutant
Method: Four days old seedlings on MS-agar plates were transferred to new MS-plates with DNA damaging agents. After one or four days treatments, the seedlings were placed in propidium iodide solution (PI, Sigma-Aldrich, 5 μg/ml in water) for 1 min and rinsed three times with water. Root tips were then transferred to slides in a drop of water and covered with a cover slip for observation under the fluorescence microscope.

Molecule	fresh weight of double mutant plants in comparison with wild type and each of the single mutants [1]	growth phenotype of double mutant compared with each of the single mutants [1]	cell death in the root meristem (PI staining) [2]
COS(C)(=O)=O [MMS, Methyl Methane Sulfonate]	dramatically reduced	grew more slowly and developed fewer true leaves	
bleomycin	dramatically reduced	grew more slowly and developed fewer true leaves	caused cell death in the root meristem of both wild type and the mutants
